In the SangsterLogP compilation:

Assays:
[1] = method code SF, from DOI: 10.1016/0043-1354(79)90201-x
[2] = method code SF-GLC, from DOI: 10.1021/ac00241a023
[3] = not given; remark: listed apart in the source
[4] = method code SF-AS, from Korenman, I.; Lineva, S.; Gezikova, N. (1978). Extraction of naphthol-sulfonic acids from aqueous solution. Zh. Prikl. Khim., 51(4)869-871.
[5] = not given; remark: listed apart in the source
[6] = method code SF-AS, from DOI: 10.1093/ajhp/38.9.1308, PMID: 7282713; conditions: pH 7.4
[7] = method code SF-AS, from DOI: 10.1016/0006-2952(74)90620-0, PMID: 4822742; conditions: pH 7.4
[8] = method code SF-AS, from DOI: 10.1016/0006-2952(65)90227-3, PMID: 14322976; conditions: pH 6.8
[9] = method code SF-CR+AS, from Korenman, I.; Kotelyanskaya, B.; Nefedova, A. (1976). Extraction of mononitrophenols from aqueous solutions. Zh. Prikl. Khim., 49(5)1150-1152.
[10] = method code SF-RI, from Korenman, M.; Dobromyslova, M. (1975). Distribution of cellosolves between organic solvents and water. Zh. Prikl. Khim., 48(12)2791-2794.
[11] = method code SF-AS, from Kosanovic, D.; Dumanovic, D.; Jovanovic, J. (1988). Solubility in octanol And the octanol-water partition coefficients of some 4(5)- and 5-nitroimidazoles. 53(10)559-563.
[12] = not given; remark: listed apart in the source
[13] = method code SF, from DOI: 10.1021/jm00307a001, PMID: 5637185
[14] = not given; remark: listed apart in the source
[15] = method code SF-CR+AS, from Korenman, Y. (1973). Extraction of guaiacol from aqueous solutions. Zh. Prikl. Khim., 46(6)1391-1394.; conditions: pH 2.0
[16] = method code SF-AS, from DOI: 10.1016/s0022-3565(25)24763-2, PMID: 2019981; conditions: pH 7.4
[17] = not given; remark: listed apart in the source
[18] = method code SF-GLC, from DOI: 10.1021/je970020p
[19] = not given; remark: listed apart in the source
[20] = from Büchel, H.; Draber, W.; Trebst, A.; Pistorius, E. (1966). Inhibition of photosynthetic reactions in isolated chloroplasts by benzimidazole-type herbicides and their structure-activity relation, …; conditions: pH 7.0
[21] = not given; remark: listed apart in the source
[22] = not given; remark: listed apart in the source
[23] = method code G-HPLC, from He, Y.; Zhao, Y.; Wang, L.; An, F.; Mo, H.; Yang, K.; Liu, Y.; Yu, G.; Xu, X. (1994). Determination of n-octanol/water partition coefficient of organic compound. Huanjing Huaxue, 13(3)195-197.
[24] = not given; remark: listed apart in the source
[25] = not given; remark: listed apart in the source
[26] = method code SF, from PMID: 8265709; conditions: pH 7.4
[27] = method code SF-RC, from DOI: 10.1111/j.2042-7158.1987.tb03173.x, PMID: 2886623
[28] = method code SF, from DOI: 10.1016/s0960-894x(00)80094-3; conditions: pH 7.4
[29] = from Tehrany, E.A.; Desobry, S. (2005). Comparison between the different calculation methods of partition coefficient of aroma compounds with a difference chemical classes in octanol/water system. …
[30] = not given; remark: listed apart in the source
[31] = method code SF-CR+AS, from Korenman, Y. (1974). Extraction of 2-halophenols from aqueous solutions. Zh. Prikl. Khim., 47(7)1663-1666.
[32] = method code SF, from DOI: 10.1016/0014-2999(70)90221-9, PMID: 5440297; conditions: pH 7.4
[33] = not given; remark: listed apart in the source
[34] = pH 5.6
[35] = method code SF-HPLC, from DOI: 10.1016/s0045-6535(01)00105-9, PMID: 11695583
[36] = method code SF, from DOI: 10.1016/j.tca.2016.07.020; conditions: pH 7.4
[37] = method code SF-AS, from DOI: 10.1016/0045-6535(84)90003-1
[38] = method code SF, from DOI: 10.1007/bf00253009, PMID: 7273265; conditions: pH 7.4
[39] = method code SF-AS, from Halmekoski, J.; Hannikainen, H. (1964). Rm values of hydroxy-substituted benzoic acids and partition coefficients of the acids between water and aliphatic alcohols. Suomen Kemist. B, 37, 221-226.
[40] = method code SF, from DOI: 10.1016/j.ejps.2014.11.002, PMID: 25447745; conditions: pH 7.4
[41] = method code SF-GLC, from DOI: 10.1002/jps.2600641120, PMID: 1195116
[42] = method code SF, from DOI: 10.1248/yakushi1947.93.11_1452, PMID: 4273378
[43] = method code SF-AS, from DOI: 10.1016/s0045-6535(98)00368-3
[44] = method code SF-GLC,RC, from DOI: 10.1016/0048-3575(73)90050-3
[45] = method code SF, from DOI: 10.1016/0005-2744(69)90103-x, PMID: 4387594
[46] = method code SF-CR+AS, from Korenman, I.; Lineva, S.; Tishchenko, M. (1979). The influence of substituents on the extraction of phenols. Russ. J. Phys. Chem., 53(11)1678-1679.; conditions: pH 2.5
[47] = not given; remark: listed apart in the source
[48] = not given; remark: listed apart in the source
[49] = not given; remark: listed apart in the source
[50] = method code SF-GLC, from DOI: 10.1016/s0021-9673(00)92516-0
[51] = method code SF-TN, from DOI: 10.1085/jgp.71.1.93, PMID: 621494

In the case of NC(=O)COCc1ccco1, the logP [1] is reported as -0.11.

With Brc1cc(Br)c(Br)cc1Br the logP [2] was 5.13.

Molecule CCC1C(=O)NC(=O)N(C)C1=O (configuration not stated) has a logP of 0.15.

With CC(C)(C)OCCO the logP [3] was 0.39.

With CC1=C(C(N)=O)SCCO1 the logP [4] was -0.22.

O=[N+]([O-])/C=C1\NCCCS1 showed a logP [5] of -0.4.

Work on Cc1ncsc1CCCl yielded a logD [6] of 2.12.

In the case of O=S1(=O)N=CNc2ccccc21, the logD [7] is reported as 0.18.

O=c1ccccc(O)c1 showed a logD [8] of 0.81.

In the case of O=[N+]([O-])c1ccc(O)cc1, the logP [9] is reported as 1.95.

Molecule CC(C)OCCO has a logP [10] of 0.05.

Cc1ncc([N+](=O)[O-])n1C showed a logP [11] of 0.31.

In the case of CSc1ncnc2[nH]cnc12, the logP [12] is reported as 0.57.

In the case of C=CC(CC)OC(N)=O (configuration not stated), the logP [13] is reported as 1.09.

For Cc1cccc(O)c1, the logP [14] was 2.01.

Work on COc1ccccc1O yielded a logD [15] of 1.35.

Molecule CCn1cccc(O)c1=O has a logD [16] of 0.08.

Oc1c(Br)cc(Br)cc1Br gave a logP [17] of 4.24.

With Clc1c(Cl)c(Cl)c(Cl)c(Cl)c1Cl the logP [18] was 5.74.

For OCCC(F)(F)C(F)(F)C(F)(F)C(F)(F)F, the logP [19] was 3.28.

Work on Clc1nc2c(Cl)c(Cl)c(Cl)c(Cl)c2[nH]1 yielded a logD [20] of 4.53.

Work on CCCCCO yielded a logP [21] of 1.41.

In the case of Oc1cc(Cl)c(Cl)cc1Cl, the logP [22] is reported as 3.63.

Clc1ccccc1Cl gave a logP [23] of 3.34.

Oc1cc(Br)ccc1Br gave a logP [24] of 3.22.

With O=C(O)c1ccccc1F the logP [25] was 1.63.

For Cn1c(=O)c2[nH]cnc2n(C)c1=O, the logD [26] was -0.18.

Work on OC[C@@H](O)[C@@H](O)[C@H](O)[C@H](O)CO (racemic) yielded a logP [27] of -2.47.

With C[C@@H]1CN(O)C(=O)[C@@H]1N the logD [28] was -3.42.

In the case of CCCCCC=O, the logP [29] is reported as 1.85.

Clc1ccc(Cl)cc1 gave a logP [30] of 3.48.

In the case of Oc1ccccc1I, the logP [31] is reported as 2.64.

In the case of O=C[C@H](O)[C@H](O)[C@H](O)CO, the logD [32] is reported as -2.32.

For Oc1c(Cl)cc(Cl)c(Cl)c1O, the logP [33] was 3.6.

In the case of NC(=O)c1ccc([N+](=O)[O-])cc1, the logD [34] is reported as 0.82.

Molecule Brc1ccc(Br)c(Br)c1Br has a logP [35] of 5.

Work on NC(=S)c1ccccn1 yielded a logD [36] of 1.14.

Work on Oc1cc(Cl)cc(Cl)c1Cl yielded a logP [37] of 3.84.

In the case of O=C(Cn1ccnc1[N+](=O)[O-])N(CO)CO, the logD [38] is reported as -1.59.

For O=C(O)c1cccc(O)c1O, the logP [39] was 1.2.

In the case of O=[N+]([O-])O[C@H]1CO[C@H]2[C@@H]1OC[C@H]2O[N+](=O)[O-], the logD [40] is reported as 1.2.

Work on C1CCc2nnnn2CC1 yielded a logP [41] of 0.14.

With CNC(=O)c1cccnc1 the logP [42] was 0.

COc1cc(OC)ncn1 gave a logP [43] of 0.96.

For ClCc1ccccc1, the logP [44] was 2.3.

With Nc1cccc(Br)c1 the logP [45] was 2.1.

Work on Cc1cc(N=O)ccc1O yielded a logD [46] of 1.71.

Molecule Brc1ccc(Br)cc1 has a logP [47] of 3.89.

With Oc1cccc(Cl)c1Cl the logP [48] was 2.98.

For Oc1c(Cl)c(Cl)c(Cl)c(Cl)c1Cl, the logP [49] was 4.79.

In the case of ClCc1ccc(Cl)cc1Cl, the logP [50] is reported as 3.82.

CCCC(O)C(=O)O (configuration not stated) showed a logP [51] of 0.45.
